We go through 8 compounds from ChEMBL document CHEMBL1123763, “Resolution of (+/-)-2-tetradecyloxiranecarboxylic acid. Absolute configuration and chiral synthesis of the hypoglycemic R enantiomer and biological activity of enantiomers” (J Med Chem, 1987).

Activity calls are given as the source filed them. The rule behind the calls is not given here.

In assay [1] the target is T1, Carnitine O-palmitoyltransferase 1, liver isoform (Rattus norvegicus, UniProt P32198).
T1 sequence (P32198 whole entry): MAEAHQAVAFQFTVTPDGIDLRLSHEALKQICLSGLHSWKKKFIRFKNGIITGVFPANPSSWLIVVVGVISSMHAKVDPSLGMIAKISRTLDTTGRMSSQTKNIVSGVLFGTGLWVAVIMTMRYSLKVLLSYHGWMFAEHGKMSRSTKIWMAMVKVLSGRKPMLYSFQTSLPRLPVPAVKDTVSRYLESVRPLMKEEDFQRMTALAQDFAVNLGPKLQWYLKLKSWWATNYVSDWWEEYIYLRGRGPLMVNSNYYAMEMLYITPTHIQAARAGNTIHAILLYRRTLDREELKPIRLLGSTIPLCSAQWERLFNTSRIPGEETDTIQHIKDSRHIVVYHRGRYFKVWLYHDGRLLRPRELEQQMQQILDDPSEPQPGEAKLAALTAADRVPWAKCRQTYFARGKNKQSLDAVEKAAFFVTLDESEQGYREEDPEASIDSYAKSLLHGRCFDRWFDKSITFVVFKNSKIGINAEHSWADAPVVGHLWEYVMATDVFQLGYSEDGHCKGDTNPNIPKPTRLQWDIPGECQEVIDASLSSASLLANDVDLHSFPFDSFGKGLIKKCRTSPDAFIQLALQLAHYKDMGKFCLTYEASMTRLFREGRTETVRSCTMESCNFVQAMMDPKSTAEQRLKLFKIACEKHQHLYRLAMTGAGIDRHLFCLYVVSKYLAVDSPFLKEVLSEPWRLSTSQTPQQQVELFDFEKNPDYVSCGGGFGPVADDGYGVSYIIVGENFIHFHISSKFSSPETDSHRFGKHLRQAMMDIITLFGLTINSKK
Nature of the assay: Inhibition of carnitine palmitoyl transferase (CPT), assessed with isolated rat liver mitochondria; Inactive.

Assay [2] has as its system Rattus norvegicus. Nature of the assay: Rat glucose tolerance in vivo expressed as minimum effective dose (MED), it is the lowest dose giving a statistically significant (p<0.05) lowering at any time point. To be noted: read-out: MED. The class given is functional.
Assay [3] is filed under the species Rattus norvegicus. The assay can be described thus: In vitro inhibition of [1-14C]palmitate oxidation in rat hemidiaphragms. It counts as functional.
Assay [4] concerns Rattus norvegicus. Nature of the assay: Rat glucose tolerance test was determined in vivo at 10 mg/kg perorally. To be noted: route oral. The class given is functional.
In assay [5] the target is T1, Carnitine O-palmitoyltransferase 1, liver isoform. Nature of the assay: Inhibition of carnitine palmitoyl transferase (CPT), assessed with isolated rat liver mitochondria.
The subject of assay [6] is Rattus norvegicus. The assay can be described thus: Rat glucose tolerance test was determined in vivo at 100 mg/kg perorally; Inactive. It counts as functional, organism-based. More on the design: dose 100 mg/kg.
Assay [7] is filed under the species Rattus norvegicus. The assay can be described thus: In vitro inhibition of [1-14C]palmitate oxidation in rat hemidiaphragms; Inactive. It counts as functional.
In assay [8] the test system is Rattus norvegicus. The assay can be described thus: Rat glucose tolerance in vivo expressed as minimum effective dose (MED), it is the lowest dose giving a statistically significant (p<0.05) lowering at any time point; Inactive. It counts as functional, organism-based.
The test system of assay [9] is Rattus norvegicus. Nature of the assay: Rat glucose tolerance test was determined in vivo at 75 mg/kg perorally. The class given is functional. To be noted: route oral.
The subject of assay [10] is Rattus norvegicus. The assay can be described thus: Rat glucose tolerance test was determined in vivo at 100 mg/kg perorally. The class given is functional. To be noted: route oral.

As for `CCCCCCCCCCCCCC[C@@]1(C(=O)SCCNC(=O)CCNC(=O)C(O)C(C)(C)COP(=O)(O)OP(=O)(O)OC[C@H]2O[C@@H](n3cnc4c(N)ncnc43)[C@H](O)[C@@H]2OP(=O)(O)O)CO1` (some centres undefined), the IC50 entry in [1] was “Not Active”.
For `CCCCCCCCCCCCCC[C@]1(C(=O)O)CO1`, the minimal effective dose in the assay with Rattus norvegicus [2] was 5 mg/kg. Also, the figures for the IC50 (in the assay filed under Rattus norvegicus [3]; in assay [5]) were 1200 nM and 30 nM, respectively. In addition, the Lowering in the assay with Rattus norvegicus [4] was determined as 25%.
Take `CCCCCCCCCCCCCC[C@@]1(C(=O)O)CO1`: the Lowering entry in the assay on Rattus norvegicus [6] is “inactive”. For the same compound, the IC50 entry (in [1]; in the assay listed under Rattus norvegicus [7]) was “Not Active” in each case. In addition, in the assay on Rattus norvegicus [8], the MED result is “inactive”.
As for `CCCCCCCCCCCCCC[C@]1(C(=O)OC)CO1`, the IC50 in [5] was determined as 40 nM.
Same read-out and setting: with `CCCCCCCCCCCCCCC1(C(=O)SCCNC(=O)CCNC(=O)C(O)C(C)(C)COP(=O)(O)OP(=O)(O)OC[C@H]2O[C@@H](n3cnc4c(N)ncnc43)[C@H](O)[C@@H]2OP(=O)(O)O)CO1` (mixture of isomers) the figure was 30 nM.
Turning to `CCCCCCCCCCCCCCC1(C(=O)OC)CO1` (racemic) [METHYL PALMOXIRATE], in the assay with Rattus norvegicus [2], the minimal effective dose is 2 mg/kg. Also, the Lowering in the assay with Rattus norvegicus [9] is given as 45%. Further, in [5], the midpoint of inhibition, the IC50, lay at 90 nM.
For the compound `CCCCCCCCCCCCCC[C@]1(C(=O)SCCNC(=O)CCNC(=O)C(O)C(C)(C)COP(=O)(O)OP(=O)(O)OC[C@H]2O[C@@H](n3cnc4c(N)ncnc43)[C@H](O)[C@@H]2OP(=O)(O)O)CO1` (some centres undefined), the IC50 in assay [5] came to 20 nM.
In turn, `CCCCCCCCCCCCCCC1(C(=O)O)CO1` (racemic) [PALMOXIRATE] had a Lowering with Rattus norvegicus [10] of 53%. Also, in the assay on Rattus norvegicus [2], the minimal effective dose is 5 mg/kg. Further, the IC50 came out at 2200 nM in the assay filed under Rattus norvegicus [3] and 40 nM in [5].

As usually defined, the IC50 is the point on the concentration scale where inhibition reaches its midpoint. High values mean lower potency, low ones higher potency.
